Each structure is given as a SMILES string. Activity calls are given as the source filed them. The rule behind the calls is not given here.

The source of these data is ChEMBL document CHEMBL3046204, “Protective effect of Centaurea pallescens Del. against CCl4-induced injury on a human hepatoma cell line (Huh7)” (2013).

Assay [1] has as its system Huh-7. Briefly: Hepatoprotective activity against CCL4-induced toxicity in human HuH7 cells assessed as increase in GSH level at 10 to 1000 ug/ml incubated for 1 hr prior to CCL4-challenge measured after 2 hrs relative to control. Type of assay: functional, cell-based.
The subject of assay [2] is Huh-7. Briefly: Hepatoprotective activity against CCL4-induced toxicity in human HuH7 cells assessed as increase in superoxide dismutase activity at 10 to 1000 ug/ml incubated for 1 hr prior to CCL4-challenge measured after 2 hrs relative to control. It counts as functional, cell-based.
For assay [3], the system named is Huh-7. The experiment in a line: Hepatoprotective activity against CCL4-induced toxicity in human HuH7 cells assessed as decrease in aspartate aminotransferase level at 10 to 1000 ug/ml incubated for 1 hr prior to CCL4-challenge measured after 2 hrs relative to control. It counts as functional, cell-based.
The test system of assay [4] is Huh-7. Briefly: Hepatoprotective activity against CCL4-induced toxicity in human HuH7 cells assessed as decrease in alanine transaminase level at 10 to 1000 ug/ml incubated for 1 hr prior to CCL4-challenge measured after 2 hrs relative to control. It counts as functional, cell-based.
The subject of assay [5] is Huh-7. The experiment in a line: Hepatoprotective activity against CCL4-induced toxicity in human HuH7 cells assessed as superoxide dismutase activity at 100 ug/ml incubated for 1 hr prior to CCL4-challenge measured after 2 hrs (reference value: 168.4 +/- 24.9 U/ml). Type of assay: functional.
Assay [6] relates to Huh-7. The experiment in a line: Hepatoprotective activity against CCL4-induced toxicity in human HuH7 cells assessed as alanine transaminase level at 100 ug/ml incubated for 1 hr prior to CCL4-challenge measured after 2 hrs (reference value: 21.5 +/- 3.7 U/ml). Type of assay: functional.
Assay [7] has as its system Huh-7. Briefly: Hepatoprotective activity against CCL4-induced toxicity in human HuH7 cells assessed as aspartate aminotransferase level at 10 ug/ml incubated for 1 hr prior to CCL4-challenge measured after 2 hrs (reference value: 38.9 +/- 7.9 U/ml). Type of assay: functional.

Consider `COc1ccc(-c2oc3cc(O[C@@H]4O[C@@H](C)[C@H](OC(=O)/C=C/c5ccc(O)cc5)[C@@H](O)[C@H]4O)cc(O)c3c(=O)c2O[C@@H]2O[C@H](CO)[C@@H](O)[C@H](O[C@@H]3O[C@@H](C)[C@H](O)[C@@H](O)[C@H]3O)[C@H]2OC(=O)/C=C/c2ccc(O)cc2)cc1`, for which the result in the assay with Huh-7 [1], in the assay on Huh-7 [2], in the assay with Huh-7 [3] and in the assay on Huh-7 [4] was Active. Also, the Activity with Huh-7 [5] turned out to be 264.6 U/ml; with Huh-7 [6] it was 18.6 U/ml.
On to `O=c1c(OC2O[C@H](CO)[C@@H](O)[C@H](O)[C@H]2O)c(-c2cc(O)c(O)c(O)c2)oc2cc(O)cc(O)c12` (stereo not given in full) [MYRICETIN 3-O-GLUCOSIDE], for which, in the assay with Huh-7 [7], the Activity is listed as 5.8 U/ml. In addition, the outcome with Huh-7 [1], in the assay on Huh-7 [2], in the assay with Huh-7 [3] and in the assay on Huh-7 [4] was Active.
As for `O=c1c(O[C@@H]2O[C@H](CO)[C@@H](O)[C@H](O)[C@H]2O)c(-c2ccc(O)c(O)c2)oc2cc(O)cc(O)c12`, the result in the assay on Huh-7 [1], with Huh-7 [2], with Huh-7 [3] and with Huh-7 [4] was Active.
